According to patent US10308617B2, “Triazole benzamide derivatives and the compositions and methods of treatment regarding the same” (An2H Discovery Limited, priority 2016, dated 2019):

biological target: T1, Parkin ligase (Homo sapiens, UniProt O60260); assay: Activity-Based Probe Assay using an Ubiquitin vinyl sulfone probe (TR-FRET); type: biochemical; settings: Parkin activation, HA-Ub-VS probe, heat activated Parkin; read-out: Probe Assay EC50 (μM) [Example 2]
T1 sequence (O60260 1-465): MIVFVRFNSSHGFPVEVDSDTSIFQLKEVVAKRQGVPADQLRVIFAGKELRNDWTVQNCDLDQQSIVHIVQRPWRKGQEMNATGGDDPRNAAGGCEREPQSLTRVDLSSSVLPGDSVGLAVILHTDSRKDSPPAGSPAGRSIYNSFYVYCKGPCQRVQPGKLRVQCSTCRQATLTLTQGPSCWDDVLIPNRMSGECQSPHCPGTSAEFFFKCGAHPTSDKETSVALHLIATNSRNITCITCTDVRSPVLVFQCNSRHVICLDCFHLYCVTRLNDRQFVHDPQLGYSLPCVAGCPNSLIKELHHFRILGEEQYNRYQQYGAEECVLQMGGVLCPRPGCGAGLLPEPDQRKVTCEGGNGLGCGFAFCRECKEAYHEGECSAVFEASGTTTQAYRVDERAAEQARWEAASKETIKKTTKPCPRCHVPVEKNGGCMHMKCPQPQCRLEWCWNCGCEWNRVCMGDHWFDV
Description: An Ubiquitin vinyl sulfone probe can be used that irreversibly binds to the active site cysteine of Parkin ligase. Covalent attachment of the probe to the Parkin can be monitored by TR-FRET. Candidate activator compounds can be identified by increasing the activity of Parkin ligase due to an increase in TR-FRET signal. Screening for activating compounds can be distinguished from the controls as follows: • 100% activation signal=Heat activated Parkin+100 nM control activator in DMSO. • 0% activation signal=Heat activated Parkin+DMSO only. • Parkin activators can be identified by an increase of the 0% activation signal TR-FRET signal.
• Assay Plate: White 384 well plate (Corning 3572) • Enzyme: Parkin-His tagged 203 μM (10.5 mg/ml) • Probe: Ubiquitin vinyl-sulfone (HA-Ub-VS Boston Biochem U-212) • DMSO: DMSO (Sigma cat # D4540-100ML) • Reaction Buffer: 50 mM HEPES (pH 8.5), 150 mM NaCl, 0.01% Tween 20, 0.1% BSA • Detection Buffer: 50 mM HEPES (pH 8.5), 150 mM NaCl, 0.01% Tween 20, 0.1% BSA, 800 mM KF • Detection Reagent A: 2.6 nM Anti-6HIS-Eu cryptate and 40 nM Anti-HA-XL665 in detection buffer • Eu cryptate: Anti-6HIS-Eu cryptate (CisBio 61HISKLA) • XL665: Anti-HA-XL665 (CisBio 610HAXLA) Enzyme Reaction (15 min pre incubation Parkin with activator only) • Parkin: 40 nM • HA-Ub-VS Probe: 70 nM • Activator/DMSO: 2× Activator/2% DMSO • Reaction time: 60 minutes • Temperature: 22° C. • Total volume: 10 μl reaction Detection Reaction • Take 10 μl of Enzyme Reaction above and add 10 μl detection Reagent A under the following conditions: • Reaction time: 60 minutes • Temperature: 22° C. • Total volume: 20 μl
Assay procedure (Using HP D-300 compound dispenser and Bravo for the operation): • 1) Heat activate Parkin in reaction buffer (500 μl/1.5 ml tube: Eppendorf Thermomixer 5 minutes, 400 rpm at 58° C. and put on ice until needed). • 2) Load assay plate wells with 4.8 μl 84.5 nM Parkin in reaction buffer by use of Bravo. • 3) Deliver 0.2 μl 200× activator candidates in DMSO by use of HP D-300 compound dispenser. Highest 200× concentration=[…] and then twofold dilutions. • 4) Spin 1000 rpm, 2 minutes, at room temp. • 5) Incubate plate for 15 minutes at room temp. • 6) Add 5 μl 140 nM HA-Ub-VS Probe in reaction buffer by use of Bravo. • 7) Spin 1000 rpm, 2 minutes, at room temp. • 8) Incubate plate for 60 minutes at room temp. • 9) Add 10 μl 2.6 nM Anti-6HIS-Eu cryptate and 40 nM Anti-HA-XL665 in detection buffer. • 10) Spin 1000 rpm, 2 minutes, at room temp. • 11) Incubate plate for 60 minutes at room temp. • 12) Read plates on Perkin Elmer Envision instrument with the following parameters: • LANCE dual laser protocol loaded into the Envision® software • Top Mirror: LANCE/DELFIA Duel/Bias (Bar code 446) • Emission Filter: APC 665 EM (Bar code 205) • 2nd Emission Filter: Europium 615 EM (Bar code 203) • Read 655 nm (channel 1) and 615 nm (channel 2) wavelengths on Envision®
Data Analysis: The Data can be read in CSV files. There are two tables in those CSV files, which are the values of 655 nm (channel 1) and 615 nm (channel 2) wavelengths respectively. The data is converted to an HTRF Ratio=(Channel 1/Channel 2)*10,000
The average of all the 0 uM controls (DMSO only)=BKGD (Background—0% activation). Subtract BKGD from each HTRF Ratio value=HTRF-BKGD. The average of all the […] 100 nM control activator in DMSO controls=Max (100% activation). The following equation is then used to calculate % Activation for each well/candidate as follows: % Activation=(HTRF-BKGD/Max)*100.
Graphpad Prisim was used with Transform X values: X=Log(X) and nonlinear regression (dose-response-stimulation): Log(agonist) vs Response—variable slope (four parameters) with constrains set to Bottom=0 and Top=100.
The Activity-Based Probe Assay was performed with various compounds in Tables 1-3.

**Q.** How did the EC50 turn out when `Cc1ccccc1C(=O)Nc1nc(NC(=O)c2ccccc2C)n(C2CCCCC2)n1` [Compound J3] was run?
**A.** 37 µM

**Q.** `COc1ccccc1C(=O)Nc1nc(NC(=O)c2ccccc2C)nn1-c1ccccc1` [Compound K3] was tested. Which EC50 did it give?
**A.** 17 µM

**Q.** Which EC50 does the source give for `Cc1ccccc1C(=O)Nc1nc(NC(=O)c2ccccn2)n(-c2ccccc2)n1` [Compound A3] here?
**A.** > 100 µM

**Q.** How did the EC50 turn out when `Cc1ccccc1C(=O)Nc1nc(NC(=O)c2ccccc2C)n(C(C)(C)C)n1` [Compound D3] was run?
**A.** > 100 µM

**Q.** For `Cc1ccccc1C(=O)Nc1nc(NC(=O)c2ccccc2C)n(-c2ccc(F)cc2)n1` [Compound O3], which EC50 is on record?
**A.** > 100 µM

**Q.** With `Cc1ccccc1C(=O)Nc1nc(NC(=O)c2ccccc2C)n(-c2ccncc2)n1` [Compound B3] as the compound, how does the EC50 read?
**A.** > 100 µM

**Q.** With `Cc1ccccc1C(=O)Nc1nc(-c2ccncn2)nn1-c1ccccc1` [Compound G3] as the compound, how does the EC50 read?
**A.** 74 µM

**Q.** How did the EC50 turn out when `Cc1ccccc1C(=O)Nc1nc(NCCc2ccccc2)n(-c2ccccc2)n1` [Compound L3] was run?
**A.** > 100 µM

**Q.** How did the EC50 turn out when `Cc1ccccc1C(=O)Nc1nc(NC(=O)c2ccccn2)n(-c2ccccc2)n1` [Compound P3] was run?
**A.** 9 µM

**Q.** With `Cc1ccccc1C(=O)Nc1nc(N)n(-c2ccccc2)n1` [Compound N3] as the compound, how does the EC50 read?
**A.** > 100 µM

**Q.** Which EC50 does the source give for `Cc1cccc(C(=O)Nc2nc(NC(=O)c3cccc(C)c3)n(-c3ccccc3)n2)c1` [Compound F3] here?
**A.** > 100 µM

**Q.** How did the EC50 turn out when `Cc1ccccc1C(=O)Nc1nc(NC(=O)c2ccncc2)n(-c2ccccc2)n1` [Compound M3] was run?
**A.** > 100 µM

**Q.** With `Cc1ccccc1C(=O)Nc1nc(NC(=O)c2ccccc2C)n(-c2cccnc2)n1` [Compound Y2] as the compound, how does the EC50 read?
**A.** > 100 µM

**Q.** For `Cc1ccccc1C(=O)Nc1nc(NC(=O)c2ccccc2F)n(-c2ccccc2)n1` [Compound E3], which EC50 is on record?
**A.** > 100 µM

**Q.** For `Cc1ccccc1C(=O)Nc1nc(NC(=O)c2ccccc2C)n(CC(C)C)n1` [Compound I3], which EC50 is on record?
**A.** > 100 µM
